Laboratory results from US7807350B2 (The University of Chicago, priority 2003, dated 2010).
Where two headings read alike, the source gives them in different places.

Columns and labels:
[1] = Toxicity (neutropenia, diarrhea, toxic death) in cycle 1 of irinotecan 350 mg/m2 every 3 weeks in cancer patients, by UGT1A1 genotype; conditions: for frequency of grade 4 neutropenia: cycle 1
[2] = Objective tumor response in the irinotecan 350 mg/m2 every 3 weeks trial; assay type: in vivo, human
Procedure: History, physical examination, complete blood count (CBC) with differential, serum chemistry profile (electrolytes, blood urea nitrogen, creatinine, glucose, albumin, alkaline phosphatase, GGTP, AST, ALT, total and conjugated bilirubin, uric acid, and lactate dehydrogenase), and coagulation profile (prothrombin time and partial thromboplastin time) were conducted prior to first treatment. Thereafter, history, physical examination, and toxicity assessment were conducted on day 1 of each cycle unless treatment-related toxicity required more frequent follow up. CBC and serum chemistry profile were obtained weekly throughout treatment, though CBCs were obtained 3 times per week with the appearance of grade 3 or 4 neutropenia or thrombocytopenia. Toxicity assessment was done according to the NCI common toxicity criteria, version 2.0 (website: ctep.cancer.gov). Objective tumor assessment by appropriate radiographic imaging was performed prior to starting therapy and after every 2 cycles.

[3] = cited from earlier work
[4] = Pharmacokinetic analysis of plasma irinotecan, SN-38 and SN-38G in patients, by TA indel genotype; assay type: in vivo, human; conditions: for SN-38G AUC (mean) / SN-38 AUC (mean): after irinotecan
Procedure: Samples of 7 ml were collected into green top sodium heparinized Vacutainer® tubes prior to the infusion; 30, 60, and 90 minutes during the infusion; and 10, 20, 30, 45, and 60 minutes and 1.5, 2, 4, 6, 12, and 24 hours after the infusion. Samples were centrifuged (2500 rpm, 20 min, 4° C.) and the plasma was immediately separated, transferred as two aliquots into storage tubes, frozen at −80° C. until analysis.

[5] = relative to irinotecan; cited from earlier work
[6] = 6/6 TA indel genotype, 30 patients
[7] = 6/7 TA indel genotype, 25 patients
[8] = 7/7 TA indel genotype, 6 patients

CCc1c2c(nc3ccc(OC(=O)N4CCC(N5CCCCC5)CC4)cc13)-c1cc3c(c(=O)n1C2)COC(=O)[C@]3(O)CC [irinotecan, 7-ethyl-10-[4-(1-piperidino)-1-piperidino]carbonyloxycamptothecin]
toxic death ([1]; neutropenia-related sepsis, day 11 of cycle 1, 7/7 genotype): One toxic death
frequency of grade 4 neutropenia ([1]; patients with 6/6 genotype (0/30)): 0%
frequency of grade 4 neutropenia ([1]; patients with 7/7 genotype (3/6)): 50%
cases of grade 4 neutropenia ([1]; patients with pretreatment bilirubin less than 0.6 mg/dl): No cases
objective responses ([2]; 60 patients assessable for response): 3
patients achieving a partial response ([2]; colorectal and head and neck cancer, 6/7 genotype): Two
patients achieving a complete response ([2]; colorectal cancer, 6/6 genotype): One
patients with grade 3-4 diarrhea ([3]; early single agent trials, dose limiting): about one third
frequency of grade 3-4 diarrhea ([3]; three-weekly regimen): 19%
mortality rate ([3]; three-weekly single agent regimen): 1.6%
frequency of grade 3-4 diarrhea ([3]; weekly schedule): 36%
mortality rate ([3]; weekly single agent regimen): 5.3%

CCc1c2c(nc3ccc(O[C@@H]4O[C@H](C(=O)O)[C@@H](O)[C@H](O)[C@H]4O)cc13)-c1cc3c(c(=O)n1C2)COC(=O)[C@]3(O)CC [SN-38G, 10-O-glucuronyl-SN-38]
SN-38G AUC (mean) [4, 6]: 1954.2 ng·h/mL
SN-38G AUC (mean) [4, 7]: 1887.9 ng·h/mL
SN-38G AUC (mean) [4, 8]: 1819.1 ng·h/mL

CCc1c2c(nc3ccc(O)cc13)-c1cc3c(c(=O)n1C2)COC(=O)[C@]3(O)CC [SN-38, 7-ethyl-10-hydroxycamptothecin]
antitumor activity higher than irinotecan [5]: 100-1,000 fold
Glucuronidation Ratio (SN-38G AUC/SN-38 AUC) [4, 6]: 6.52
SN-38 AUC (mean) [4, 6]: 335.9 ng·h/mL
Glucuronidation Ratio (SN-38G AUC/SN-38 AUC) [4, 7]: 5.55
SN-38 AUC (mean) [4, 7]: 458.4 ng·h/mL
Glucuronidation Ratio (SN-38G AUC/SN-38 AUC) [4, 8]: 3.59
SN-38 AUC (mean) [4, 8]: 542.0 ng·h/mL
